This note sets out measurements from patent US4994617A, “Aminoalcohols, their preparation process and their applications, particularly in therapeutics” (Jouveinal S.A., priority 1986, dated 1991).

For assay [1], the system named is mice. Briefly: tail hanging test, activity on the S.N.C. (central nervous system), mice, oral. Type of assay: in vivo, mouse. To be noted: 1 hour before the test; for change in vivo at 32 mg/kg / change in vivo at 128 mg/kg: Mus musculus, po, 1 h, read-out: S.N.C.: Hanging test, activity percentages compared with the controls. The protocol:
This activity was investigated on mice using the tail hanging test in accordance with the procedure described by Thierry et al. (Behavioral and Neural Biology, 1984, 41, 180-189), which was proposed as a model for the animal for the selection of products active on the S.N.C.
The tests were carried out on batches of 10 male mice for each product and at each dose, the substances to be investigated being administered orally in aqueous solution 1 hour before the test, a control batch only receiving distilled water.
The results of the tests are given in activity percentages compared with the controls.

Assay [2] deals with mice. The assay is described as follows: acetic acid test, analgesic activity, mice, oral. Type of assay: in vivo, mouse. To be noted: for Analgesia: Acetic acid test, percentages of analgesed animals: Dose: 30 mg/kg, 30 minutes before acetic acid injection; for ED50: Mus musculus, read-out: Analgesia: Acetic acid test, ED50 (dose causing analgesia of 50% of the animals). The protocol:
This was investigated and determined on mice using the acetic acid test according to a procedure derived from that of Troster R. (Fed. Proc. 1959, 18, 412).
20 hours prior to the test, the animals were starved of food and drink. This was followed by the oral administration in aqueous solution of the product to be investigated at a rate of 2 ml of solution per 100 g of body weight, which was followed 30 minutes later by an intraperitoneal injection of 0.25 ml of 0.25% acetic acid solution (wt/v) maintained at 37° C. 30 minutes after this injection, the number of abdominal cramps suffered by the animals were counted for a period of 10 minutes.
The animals were considered to be analgesed when the number of cramps suffered was less than half the mean value of the cramps experienced by the controls.
The products were administered at a dose rate of 30 mg-kg^-1 and the results are given in percentages of analgesed animals. For certain products, several doses were administered and the calculation of their ED50 (dose causing analgesia of 50% of the animals) was determined in log probability units.

Turning to `CN(C)C(C)(CO)Cc1ccc(Cl)c(Cl)c1` (single isomer, unassigned; (+)) [JO 1240, (+) 2-methyl-2-dimethylamino-3-(3,4-dichlorphenyl)-propanol], the “S.N.C.: Hanging test, activity percentages compared with the controls” value with mice [1] (Dose: 32 mg/kg, 32 mg/kg) is -77%; in the assay on mice [1] (Dose: 128 mg/kg, 128 mg/kg), -85%.
On to `CN(C)C(C)(CO)Cc1ccc(Cl)c(Cl)c1` (racemic) [JO 1017, (±) 2-methyl-2-dimethylamino-3-(3,4-dichlorophenyl)-propanol], for which, in the assay with mice [2], the “Analgesia: Acetic acid test, percentages of analgesed animals” value (from here on “Analgesia: Acetic acid test, percentages”) was -86% and the 50% effective dose (ED50) (commonly the dose at which the effect has come halfway, by size or by number of responders) worked out at 14 mg/kg. In addition, in the assay with mice [1] (Dose: 32 mg/kg), the change in vivo at 32 mg/kg was -65%. In addition, the change in vivo at 128 mg/kg in the assay on mice [1] (Dose: 128 mg/kg) was -85%.
As to `CNC(C)(CO)Cc1ccc(Cl)c(Cl)c1` (racemic) [JO 1276, (±) 2-methyl-2-methylamino-3-(3,4-dichlorophenyl)-propanol], in the assay with mice [2], the “Analgesia: Acetic acid test, percentages” value is -86% and the median effective dose (ED50) turned out to be 8.5 mg/kg. Also, the change in vivo at 32 mg/kg in the assay on mice [1] (Dose: 32 mg/kg) is -58%. Besides, in the assay with mice [1] (Dose: 128 mg/kg), the change in vivo at 128 mg/kg is -83%.
Regarding `CN(CCc1ccccc1)C(C)(CO)Cc1ccc(Cl)c(Cl)c1` (racemic) [JO 1457, (±) 2-methyl-2-[N-methyl, N-(2-phenyl)-ethyl]-amino-3-(3,4-dichlorophenyl)-propanol], the change in vivo at 32 mg/kg with mice [1] (Dose: 32 mg/kg) is -60%.
Consider `CC(N)(CO)Cc1ccc(Cl)c(Cl)c1` (single isomer, unassigned; (+)) [JO 1307, (+) 2-methyl-2-amino-3-(3,4-dichlorophenyl)-propanol], for which the “Analgesia: Acetic acid test, percentages” value in the assay with mice [2] is -50%.
In the case of `C=CCN(C)C(C)(CO)Cc1ccc(Cl)c(Cl)c1` (racemic) [JO 1581, (±) 21-methyl-2-(N-methyl, N-allyl)-amino-3-(3,4-dichlorophenyl)-propanol], the change in vivo at 128 mg/kg in the assay with mice [1] (Dose: 128 mg/kg) is -61%.
For `CCCCCC(CO)(Cc1ccc(Cl)c(Cl)c1)N(C)C` (racemic) [JO 1564, (±) 2-pentyl-2-dimethylamino-3-(3,4-dichlorophenyl)-propanol], the change in vivo at 128 mg/kg with mice [1] (Dose: 128 mg/kg) is -74%.
In the case of `CNC(C)(CO)Cc1ccc(Cl)c(Cl)c1` (single isomer, unassigned; (+)) [JO 1308, (+) 2-methyl-2-methylamino-3-(3,4-dichlorophenyl)-propanol], the “Analgesia: Acetic acid test, percentages” value with mice [2] is -88%.
With `CCCCCC(N)(CO)Cc1ccc(Cl)c(Cl)c1` (racemic) [JO 1562, (±) 2-pentyl-2-amino-3 (3,4-dichlorophenyl)-propanol], in the assay on mice [1] (Dose: 32 mg/kg), the change in vivo at 32 mg/kg was -73%.
Take `CC(C)C(N)(CO)Cc1ccc(Cl)c(Cl)c1` (racemic) [JO 1579, (±) 2-isopropyl-2-amino-3 (3,4-dichlorophenyl)-propanol]: in the assay on mice [1] (Dose: 128 mg/kg), the change in vivo at 128 mg/kg is -67%.
As to `CCNC(C)(CO)Cc1ccc(Cl)c(Cl)c1` (racemic) [JO 1277, (±) 2-methyl-2-ethylamino-3-(3,4-dichlorophenyl)-propanol], the “Analgesia: Acetic acid test, percentages” value in the assay with mice [2] is -43%.
For the compound `CCCCCC(CO)(Cc1ccc(Cl)c(Cl)c1)NC` (racemic) [JO 1563, (±) 2-penthyl-2-methylamino-3-(3,4-dichlorophenyl)-propanol], in the assay with mice [1] (Dose: 32 mg/kg), the change in vivo at 32 mg/kg was -49%. Besides, in the assay with mice [1] (Dose: 128 mg/kg), the change in vivo at 128 mg/kg is -71%.
As for `CN(C)C(C)(CO)Cc1ccc(Cl)c(Cl)c1` (single isomer, unassigned; (-)) [JO 1239, (-) 2-methyl-2-dimethylamino-3-(3,4-dichlorophenyl)-propanol], the “Analgesia: Acetic acid test, percentages” value in the assay on mice [2] is reported as -86%. Also, in the assay with mice [2], the ED50 came out at 11 mg/kg. Further, the “S.N.C.: Hanging test, activity percentages compared with the controls” value was -74% in the assay on mice [1] (Dose: 32 mg/kg, 32 mg/kg) and -64% with mice [1] (Dose: 128 mg/kg, 128 mg/kg).
For `CCN(C)C(C)(CO)Cc1ccc(Cl)c(Cl)c1` (racemic) [JO 1291, (±) 2-methyl-2-(N-methyl, N-ethyl)-amino-3-(3,4-dichlorophenyl)-propanol], in the assay with mice [2], the “Analgesia: Acetic acid test, percentages” value is recorded as -38%. In addition, in the assay on mice [1] (Dose: 32 mg/kg), the change in vivo at 32 mg/kg is -58%.
Consider `CC(N)(CO)Cc1ccc(Cl)c(Cl)c1` (racemic) [JO 1275, (±) 2-methyl-2-amino-3-(3,4-dichlorophenyl)-propanol], for which the “Analgesia: Acetic acid test, percentages” value in the assay on mice [2] is on record as -43%. Besides, the change in vivo at 32 mg/kg in the assay on mice [1] (Dose: 32 mg/kg) is -78%. Moreover, the change in vivo at 128 mg/kg in the assay with mice [1] (Dose: 128 mg/kg) was -86%.
As to `CN(C)CCCN1c2ccccc2CCc2ccc(Cl)cc21` [Clomipramine, clomipramine, reference compound], the change in vivo at 32 mg/kg with mice [1] (Dose: 32 mg/kg) is -49%. The change in vivo at 128 mg/kg with mice [1] (Dose: 128 mg/kg) is -54%.
For the compound `CCNC(C)(CO)Cc1ccc(Cl)c(Cl)c1` (single isomer, unassigned; (-)) [JO 1296, (-) 2-methyl-2-ethylamino-3-(3,4-dichlorophenyl)-propanol], the “Analgesia: Acetic acid test, percentages” value in the assay with mice [2] is listed as -38%.
